In patent US11014961B2, “Self-labeling miniproteins and conjugates comprising them” (priority 2017, dated 2021):
No end group written: not given here.

Legend:
Type in all cases: biochemical
[1] = Labeling conversion of MP with the modified capture agent (LC-MS TIC); conditions: 0.5 mM mCA, 0.1 mM MP, 5 mM TCEP, 1× selection buffer, pH 7.4
Protocol: A solution consisting of 5 mM carboxy-(PEG)12-thiol, 500 mM pentafluorophenyl sulfide, 20 mM triphenylphosphine and 230 mM DIEA in acetonitrile was vortexed and left at room temperature for 4 hours. The reaction was then diluted with 10.6× volume of 95% A: 5% B, solid phase extracted and lyophilized. The resulting material was analyzed by LCMS (method 2). This product will later be referred to as mCA (modified CA).
All 10 putative self-labeling MPs were chemically synthesized (MP01 and MP02 were additionally made with the full C-terminal constant region). To determine the importance of the C-terminal tag, a kinetic analysis on MP01 was conducted comparing the sequence with and without the tag. […] The remainder of the MPs all reacted with varying second order rate constants and to differing product distributions from multiple cysteine labeling sites (Table 3). […] Of the sequences containing multiple cysteines, all reacted to differing extents. […] On the other hand, MP08 (SEQ ID NO: 53) reacted sluggishly (0.04 μM^−1 s^−1) to produce singly and doubly labeled species. The sole sequence containing three cysteines, MP05 (SEQ ID NO: 44), yielded a mixture of labeled species within an 8-hour reaction—primarily existing with either 2 or 3 labels with a rapid initial labeling process (0.93±0.11 μM^−1 s^−1). […]

[2] = Second order rate constant of the reaction between miniprotein (MP) and capture agent (CA), LC-MS TIC peak integration; conditions: for Second order rate constant: 0.1 mM MP, 0.5 mM CA
[3] = Labeling conversion of MP with the selection capture agent (LC-MS TIC); conditions: 0.5 mM CA, 0.1 mM MP, 5 mM TCEP, 1× selection buffer, pH 7.4
Protocol: All 10 putative self-labeling MPs were chemically synthesized (MP01 and MP02 were additionally made with the full C-terminal constant region). To determine the importance of the C-terminal tag, a kinetic analysis on MP01 was conducted comparing the sequence with and without the tag. […] The remainder of the MPs all reacted with varying second order rate constants and to differing product distributions from multiple cysteine labeling sites (Table 3). […] Of the sequences containing multiple cysteines, all reacted to differing extents. […] On the other hand, MP08 (SEQ ID NO: 53) reacted sluggishly (0.04 μM^−1 s^−1) to produce singly and doubly labeled species. The sole sequence containing three cysteines, MP05 (SEQ ID NO: 44), yielded a mixture of labeled species within an 8-hour reaction—primarily existing with either 2 or 3 labels with a rapid initial labeling process (0.93±0.11 μM^−1 s^−1). Finally, MP01, 07 and 10 (SEQ ID NOs: 13, 52, and 59, respectively) were probed via proteolytic digest-LC-MS/MS analysis, this confirmed that the cysteines were labeled and not an alternative amino acid. […] Conditions used were 0.5 mM CA, 0.1 mM MP, 5 mM TCEP, 1× selection buffer, pH 7.4.

[4] = 5 mM TCEP, 1× selection buffer pH 7.4, RT, a: average of three MP concentrations, c: labeled 1-3 times, d: labeled 1-2 times

Substance	conversion with modified CA (mCA) [1]	rate enhancement over a non-selected Cys peptide [2]	Second order rate constant [2, 4]	conversion with selection CA [3]	Second order rate constant ([2]; 5 mM TCEP, 1× selection buffer pH 7.4, RT)	second order rate constant, second MP01 construct ([2]; MP01 construct with C-terminal tag (per Table 3 footnote b), standard conditions)	Second order rate constant ([2]; footnote b: construct with the full length C-terminal region (-SGSLGHHHHHHRL))
MHNAYLRKSMRQLCYFRRTLHNIHVMSHRG-NH2 [MP10]	96%	~529 ×	1.66 ± 0.48^a M^−1 s^−1	91%			
MHQKYKMTKDCFFSFLAHHKKRKLYPMSG-NH2 [MP01]	91%		0.34 ± 0.06^a/ M^−1 s^−1	83%	0.34 M⁻¹ s⁻¹	0.28 M⁻¹ s⁻¹	0.28 ± 0.02^b M^−1 s^−1
